Tested on: yeast genes (level of expressed mRNA)
Assay: DNA chip analysis of expressed mRNA of yeast genes after 2 h culture with a toxic chemical substance
Assay type: cell-based, Saccharomyces cerevisiae S288C
Details: for The level of expressed mRNA in the presence of chemical substance/ (ratio to absence of chemical substance): stress protein genes, DNA chip
Description: Yeast (Saccharomyces cerevtisiae S288C (α SUC2mal mel gap2 CUP1)) were cultured at 25° C. on YPD medium (yeast extract 1%, polypepton 2%, glucose 2%). One of toxic chemical substances was added to the cell at logarithmic growth phase, and the cell was further cultured for two hours. Cell was cultured without any chemical substance in the same condition, and was used as control. Concentrations of the chemical substances were defined to inhibit the growth of the yeast but not lead to death.
After the completion of cultivation, the culture was centrifuged to collect the cells. To the cells, sodium acetate buffer (50 mM sodium acetate, 10 mM EDTA, 1% SDS) was added, and the mixture was shaken at 65° C. for five minutes, followed by returning to room temperature, and obtaining the supernatant, which procedure was repeated two times. To the supernatant, ½ amount of a solution of phenol/chloroform was added, and the mixture was centrifuged to give a supernatant, which was added with an equal amount of chloroform, and the mixture was centrifuged to give a supernatant. To the supernatant, an equal amount of isopropanol containing 0.3 M sodium acetate was added, and the mixture was allowed to stand at room temperature for 30 minutes, after which the mixture was centrifuged to give a sediment of the whole RNAs. Seventy % ethanol was added to the sediment, and the mixture was again centrifuged to give a sediment, which was then dried and dissolved in water. mRNA was isolated from the whole RNAs as followings. In view of the fact that a poly A chain is attached to the 3′ terminus of mRNA, a polynucleotide having a poly T structure which was immobilized on the surface of latex beads was used to trap the mRNA, and then the mRNA was washed and eluted with spine column (Oligotex-dT30<Super>mRNA Purification Kit, Takara). Reverse transcription of the mRNA was conducted with a reverse transcriptase (Super Script II Reverse Transcriptase; catalogue No. 18064-014, GibcoBRL) using fluorescence-labeled nucleotides to give cDNAs that were introduced with Cy3-dUTP or Cy5-dUTP during the reverse transcription.
The labeled cDNAs were dissolved in TE buffer (10 mM Tris-HCl/1 mM EDTA, pH8.0), and the solution was dropped on the DNA chip containing the whole genes of yeast (DNA Chip Research Inc. Japan) so that the cDNAs were hybridized on the DNA chip at 65° C. for over 12 hours. The fluoresces intensity of the DNA chip was read with a scanner, and the ratio relative to the fluorescence intensity resulting from the absence of chemical substance was estimated as the following, which is shown in Tables 1 to 9: [formula]
In the Tables, “Intensity” indicated in the rightmost column is a value of the level of expressed mRNA of each gene in control cells as divided by the average level of the expressions of the whole genes.

CCCCCCCCCCCCOS(=O)(=O)[O-].[Na+] [(18), sodium lauryl sulfate]
The level of expressed mRNA in the presence of chemical substance/The level of expressed mRNA in the absence of chemical substance (yeast gene YIL140W): 1.0 | The level of expressed mRNA in the presence of chemical substance/ (in its absence), gene YJL070C (yeast gene YJL070C, ratio of DNA chip fluorescence intensity to that without chemical substance): 1.2 | The level of expressed mRNA in the presence of chemical substance/The level of expressed mRNA in the absence of chemical substance (yeast gene YJL073W): 1.0 | The level of expressed mRNA in the presence of chemical substance/The level of expressed mRNA in the absence of chemical substance (yeast gene YJL089W): 1.1 | The level of expressed mRNA in the presence of chemical substance/ (ratio to absence), gene YJL096W (yeast gene YJL096W, mitochondria-located protein genes, 2 h culture with chemical): 1.2 | The level of expressed mRNA in the presence of chemical substance/The level of expressed mRNA in the absence of chemical substance (yeast gene YJL116C): 0.7 | The level of expressed mRNA in the presence of chemical substance/ (ratio to absence of chemical substance) (yeast gene YJL158C): 1.4 | The level of expressed mRNA in the presence of chemical substance/ (in its absence), gene YJL167W (yeast gene YJL167W, ratio of DNA chip fluorescence intensity to that without chemical substance): 2.1 | The level of expressed mRNA in the presence of chemical substance/ (ratio to absence), gene YJL180C (yeast gene YJL180C, mitochondria-located protein genes, 2 h culture with chemical): 1.4 | The level of expressed mRNA in the presence of chemical substance/ (in its absence), gene YJL216C (yeast gene YJL216C, ratio of DNA chip fluorescence intensity to that without chemical substance): 2.0 | The level of expressed mRNA in the presence of chemical substance/The level of expressed mRNA in the absence of chemical substance (yeast gene YJR004C): 0.4 | The level of expressed mRNA in the presence of chemical substance/The level of expressed mRNA in the absence of chemical substance (yeast gene YJR086W): 1.6 | The level of expressed mRNA in the presence of chemical substance/ (ratio to absence of chemical substance) (yeast gene YJR090C): 1.0 | The level of expressed mRNA in the presence of chemical substance/The level of expressed mRNA in the absence of chemical substance (yeast gene YKL008C): 1.9 | The level of expressed mRNA in the presence of chemical substance/The level of expressed mRNA in the absence of chemical substance (yeast gene YKL013C): 1.7 | The level of expressed mRNA in the presence of chemical substance/The level of expressed mRNA in the absence of chemical substance (yeast gene YKL039W): 1.3 | The level of expressed mRNA in the presence of chemical substance/The level of expressed mRNA in the absence of chemical substance (yeast gene YKL041W): 1.3 | The level of expressed mRNA in the presence of chemical substance/The level of expressed mRNA in the absence of chemical substance (yeast gene YKL096W): 0.7 | The level of expressed mRNA in the presence of chemical substance/ (ratio to absence of chemical substance) (yeast gene YKL164C): 0.8 | The level of expressed mRNA in the presence of chemical substance/The level of expressed mRNA in the absence of chemical substance (yeast gene YKL165C): 1.0 | The level of expressed mRNA in the presence of chemical substance/The level of expressed mRNA in the absence of chemical substance (yeast gene YKL193C): 2.3 | The level of expressed mRNA in the presence of chemical substance/ (in its absence), gene YKR009C (yeast gene YKR009C, ratio of DNA chip fluorescence intensity to that without chemical substance): 2.5 | The level of expressed mRNA in the presence of chemical substance/ (in its absence), gene YKR034W (yeast gene YKR034W, ratio of DNA chip fluorescence intensity to that without chemical substance): 1.0 | The level of expressed mRNA in the presence of chemical substance/ (ratio to absence of chemical substance) (yeast gene YKR053C): 2.4 | The level of expressed mRNA in the presence of chemical substance/ in its absence, gene YKR058W (yeast gene YKR058W, energy system protein genes, 2 h culture with the chemical, ratio to control without chemical): 1.6 | The level of expressed mRNA in the presence of chemical substance/ (in its absence), gene YLR006C (yeast gene YLR006C, ratio of DNA chip fluorescence intensity to that without chemical substance): 1.0 | The level of expressed mRNA in the presence of chemical substance/ (ratio to absence of chemical substance) (yeast gene YLR006C): 1.0 | The level of expressed mRNA in the presence of chemical substance/The level of expressed mRNA in the absence of chemical substance (yeast gene YLR120C): 2.9 | The level of expressed mRNA in the presence of chemical substance/The level of expressed mRNA in the absence of chemical substance (yeast gene YLR136C): 1.4 | The level of expressed mRNA in the presence of chemical substance/The level of expressed mRNA in the absence of chemical substance (yeast gene YLR178C): 3.6 | The level of expressed mRNA in the presence of chemical substance/The level of expressed mRNA in the absence of chemical substance (yeast gene YLR250W): 2.2 | The level of expressed mRNA in the presence of chemical substance/ in its absence, gene YLR295C (yeast gene YLR295C, energy system protein genes, 2 h culture with the chemical, ratio to control without chemical): 1.5 | The level of expressed mRNA in the presence of chemical substance/ (ratio to absence), gene YLR295C (yeast gene YLR295C, mitochondria-located protein genes, 2 h culture with chemical): 1.5 | The level of expressed mRNA in the presence of chemical substance/The level of expressed mRNA in the absence of chemical substance (yeast gene YLR327C): 5.3 | The level of expressed mRNA in the presence of chemical substance/ (in its absence), gene YLR351C (yeast gene YLR351C, ratio of DNA chip fluorescence intensity to that without chemical substance): 1.8 | The level of expressed mRNA in the presence of chemical substance/The level of expressed mRNA in the absence of chemical substance (yeast gene YLR356W): 1.0 | The level of expressed mRNA in the presence of chemical substance/The level of expressed mRNA in the absence of chemical substance (yeast gene YLR362W): 1.3 | The level of expressed mRNA in the presence of chemical substance/ (in its absence), gene YLR375W (yeast gene YLR375W, ratio of DNA chip fluorescence intensity to that without chemical substance): 1.0 | The level of expressed mRNA in the presence of chemical substance/The level of expressed mRNA in the absence of chemical substance (yeast gene YLR391W): 0.9 | The level of expressed mRNA in the presence of chemical substance/The level of expressed mRNA in the absence of chemical substance (yeast gene YLR429W): 0.9 | The level of expressed mRNA in the presence of chemical substance/ in its absence, gene YML129C (yeast gene YML129C, energy system protein genes, 2 h culture with the chemical, ratio to control without chemical): 1.3 | The level of expressed mRNA in the presence of chemical substance/ (ratio to absence), gene YML129C (yeast gene YML129C, mitochondria-located protein genes, 2 h culture with chemical): 1.3 | The level of expressed mRNA in the presence of chemical substance/The level of expressed mRNA in the absence of chemical substance (yeast gene YMR004W): 1.3 | The level of expressed mRNA in the presence of chemical substance/ (ratio to absence), gene YMR023C (yeast gene YMR023C, mitochondria-located protein genes, 2 h culture with chemical): 1.4 | The level of expressed mRNA in the presence of chemical substance/The level of expressed mRNA in the absence of chemical substance (yeast gene YMR094W): 1.0 | The level of expressed mRNA in the presence of chemical substance/The level of expressed mRNA in the absence of chemical substance (yeast gene YMR104C): 1.9 | The level of expressed mRNA in the presence of chemical substance/ (ratio to absence of chemical substance) (yeast gene YMR186W): 1.1 | The level of expressed mRNA in the presence of chemical substance/The level of expressed mRNA in the absence of chemical substance (yeast gene YMR219W): 0.9 | The level of expressed mRNA in the presence of chemical substance/The level of expressed mRNA in the absence of chemical substance (yeast gene YMR226C): 2.0 | The level of expressed mRNA in the presence of chemical substance/ in its absence, gene YMR267W (yeast gene YMR267W, energy system protein genes, 2 h culture with the chemical, ratio to control without chemical): 1.3 | The level of expressed mRNA in the presence of chemical substance/ (ratio to absence), gene YMR267W (yeast gene YMR267W, mitochondria-located protein genes, 2 h culture with chemical): 1.3 | The level of expressed mRNA in the presence of chemical substance/ in its absence, gene YMR267W (yeast gene YMR267W, ratio of DNA chip fluorescence intensity to that without chemical substance): 1.3 | The level of expressed mRNA in the presence of chemical substance/The level of expressed mRNA in the absence of chemical substance (yeast gene YMR275C): 0.7 | The level of expressed mRNA in the presence of chemical substance/The level of expressed mRNA in the absence of chemical substance (yeast gene YMR276W): 0.7 | The level of expressed mRNA in the presence of chemical substance/ (in its absence), gene YMR278W (yeast gene YMR278W, ratio of DNA chip fluorescence intensity to that without chemical substance): 1.5 | The level of expressed mRNA in the presence of chemical substance/ (in its absence), gene YMR293C (yeast gene YMR293C, ratio of DNA chip fluorescence intensity to that without chemical substance): 1.0 | The level of expressed mRNA in the presence of chemical substance/The level of expressed mRNA in the absence of chemical substance (yeast gene YMR314W): 1.6
